In experiment [1] the test system is p16(Ink4a) expression in SAMs. Description: p16(Ink4a) promoter-dependent luciferase activity in alginate bead-elicited macrophages (SAMs) ex vivo. The note with it: for IL-4-dependent increase in luciferase activity / p16(Ink4a) expression: IL-4 10 ng/mL, 72 hour; for Modulation of p16(Ink4a): SAMs: SAMs from NDF alginate beads, dose-response testing. The experiment is classed as cell-based, mouse. As to the method:
FIG. 7. Immunomodulatory regulation of p16(Ink4a) and SAβG in macrophages. Peritoneal lavage cells elicited by alginate-encapsulated SCs from p16^Ink4a/Luc mice were treated ex vivo with immunomodulatory agents for 72 hours. A) p16 promoter-dependent luciferase activity (black bars) and […] activity (via 4-MUG hydrolysis) (gray bars) were measured following treatment with M1- and M2-polarizing stimuli: LPS at 1 ng/mL, IFN-γ at 10 ng/mL, LPS/IFN-γ co-treatment, Poly(I:C) at 10 μg/mL, IFN-α at 100 U/mL, IL-4 at 20 ng/mL, IL-13 at 10 ng/ml, and IL-4/IL-13 co-treatment. Results are shown as the mean±standard deviation for at least 3 independent experiments, with statistical significance between treated compared to non-treated samples depicted. B) Dose-dependent response of JAK1/2 inhibitor Ruxolitinib on luciferase activity in elicited macrophages in the presence (gray bars) or absence (black bars) of IL-4 (10 ng/mL) stimulation. Enzyme activities are expressed as the percent activity relative to non-treated (NT) controls per cell. Statistical significance between IL-4 stimulated and non-stimulated cells at each concentration of ruxolitinib is shown.
(§1) FIG. 8. Immunomodulatory regulation of p16(Ink4a) and SAβG in macrophages. Peritoneal lavage cells elicited by alginate-encapsulated SCs from p16^Ink4a/Luc mice were treated ex vivo with immunomodulatory agents for up to 72 hours. (A) mRNA expression of p16(Ink4a) and β-galactosidase (Glb1) in macrophages (relative to B2m expression) with or without LPS stimulation for 72 hours analyzed via qRT-PCR, normalized to non-treated controls. (B) Microphotograph of SAβG-stained adherence-selected macrophages with or without stimulation with LPS (1 ng/mL) for 72 hours (10× objective). (C&D) Kinetics of p16(Ink4a) promoter-dependent luciferase activity per cell with or without LPS stimulation (C) or IL-4 stimulation (D), normalized to activity from non-treated cells at time zero. Results are shown as the mean±standard deviation for at least 3 experiments. Statistical significance with respect to non-treated control at time zero is indicated. (E) Luciferase activity and (3-galactosidase activity (via 4-MUG hydrolysis) from proteose peptone-elicited lavage cells following stimulation with IL-4 (20 ng/mL) for 72 hours, normalized to non-treated controls. (F) Viability following 72 hour dose-response to JAK1/2 inhibitor Ruxolitinib in the presence or absence of IL-4 (10 ng/mL) stimulation, measured by CyQuant Direct DNA-based viability assay. Viability normalized to respective controls lacking Ruxolitinib. (G&H) Dose-response of STAT6 inhibitor AS1517499 against luciferase activity (G) and viability via CyQuant Direct assay (H) following 72 hour treatment in the presence and absence of IL-4 (10 ng/mL). Results normalized to respective controls (with or without IL-4) lacking STAT6 inhibitor. Statistical significance is calculated with respect to the difference between IL-4 stimulated and non-stimulated cells at each concentration of STAT6 inhibitor. (I) Relative luciferase activity per cell following repolarization with M1- and M2-inducing agents. Macrophages were left non-treated (NT) or treated with either LPS (1 ng/ml) or IL-4 (20 ng/ml) for 72 hours (days 1-3), as indicated. For each treatment set, samples were collected at 72 hours (no further treatment; days 4-6=x). Alternatively, cells were washed and placed in fresh medium (−), medium containing LPS (1 ng/mL) and IFN-γ (10 ng/mL), or medium containing IL-4 (20 ng/mL) and IL-13 (10 ng/mL) and incubated for an additional 72 hours prior to sample collection (as indicated for days 4-6). Luciferase activity is expressed as the percent activity per cell relative to non-treated (NT) controls after the first 72 hours.
Luciferase activity of cell lysates was accessed using Bright-Glo™ Luciferase Assay System (Promega; Madison, Wis.) according to manufacturer's instructions with minor modifications. […]

Experiment [2] deals with p16(Ink4a) in mLF and mVAT fibroblasts. Kind of experiment: Modulation of p16(Ink4a) in mouse lung and visceral adipose tissue-derived fibroblasts. The experiment is classed as cell-based. The note with it: for Modulation of p16(Ink4a): mLF and mVAT Senescent: 20Gy irradiation for senescence induction; for Modulation of p16(Ink4a): mLF and mVAT Proliferating: without irradiation. The source says: We next sought to determine whether immunomodulatory agents, and other small molecules, were capable of selectively modulating p16(Ink4a) expression in SAMs by comparing their effects on p16 expression in SAMs to that of mouse lung fibroblasts (mLF) and mouse visceral adipose tissue-derived fibroblasts (mVAT). […] Immunomodulatory agents cause little to no change in p16 expression in fibroblasts. For example, mouse fibroblasts are reported to respond to LPS and IL-4 (expressing TLR4 and IL-4R, respectively), yet these agents are unable to modulate p16 in fibroblasts.

The subject of the next experiment is SAMs. Kind of experiment: SAM viability (CyQuant Direct / resazurin). The experiment is classed as cell-based, mouse. The following applies: 72 hour; presence or absence of IL-4 10 ng/mL. As to the method: as §1
FIG. 10. Elevated p16(Ink4a) and β-galactosidase is regulated by immunomodulatory agents in macrophages, but not in mesenchymal SCs. Primary cultures of adipose-derived mesenchymal stromal cells (AdMSC) isolated from p16^Ink4a/Luc mice were irradiated (20 Gy) and cultured for 10 days for senescence induction. Mock irradiated cells were used as a proliferating cell control. Response of senescent and proliferating AdMSCs to immunomodulatory agents were compared to that of peritoneal lavage cells elicited by our alginate bead model. A-D) Dose-response curves of LPS (top panels: […]) and Poly(I:C) (bottom panels: C&D) on p16(Ink4a) promoter-dependent luciferase activity (left panels: A&C) and beta-galactosidase activity measured via 4-MUG hydrolysis (right panels: B&D) after 72 hr treatment. […]
FIG. 13. […] SAM viability was determined using the resazurin cell viability assay (Res). […]
For orientation: Resazurin is reduced to fluorescent resorufin, in cell work by metabolically active cells.

The subject of experiment [3] is chronologically aging mice. Kind of experiment: Survival and frailty index of chronologically aging mice. The experiment is classed as in vivo, mouse. The procedure: FIG. 11. OT-82 effects on survival and frailty index of old mice. (A) Male and female mice were treated with OT-82 or with vehicle alone as a negative control. Survival was measured over the course of six treatments.
FIG. 12. Effects of asenins TA-3899 and TA-4812 on survival and frailty index of old mice. Results are provided on a background of FI of mice of the similar age, aged normally without any treatments (black color). Difference between FI of males receiving 3899 and intact mice is statistically significant (p=0.02).
Frailty Index (FI) was determined for individual mice as described previously (Antoch et al. Aging. 2017; 9: 1-12) using a 26 week-old group as a “young mouse” reference. For each mouse, various parameters were measured. These parameters include non-invasive measurements, including age, body weight, grip strength, diastolic blood pressure, and tail blood flow. Additional blood chemistry measurements were also determined, including white blood cell count, neutrophil count, neutrophil percentage, lymphocyte percentage, monocyte percentage, eosinophil percentage, red blood cell count, hemoglobin, hematocrit, mean corpuscular volume, mean corpuscular hemoglobin, mean corpuscular hemoglobin concentration, platelet count, and mean platelet volume. For each parameter mean value and standard deviation were calculated. Animals differing by more than one standard deviation (STDEV) from mean value in any single parameter were excluded from the reference group. Values for each measured parameter were compared with corresponding values for the reference group and assigned a score. The number of deficits an individual mouse expressed was calculated as a ratio of total number of parameters measured and this value is referred to as the frailty index.
Asenins TA-3899 and TA-4812 were evaluated for their effects on survival and frailty index in a model of chronologic aging mice. Treatment lasted for 20 weeks (weeks 77-97 of age). […] Frailty index of males was measured at week 109.

For `NC(=O)c1cnc(NCCc2ccc(O)c(Cl)c2)nc1NCc1ccccc1` [AS1517499, reference compound], the “IL-4-dependent increase in luciferase activity / p16(Ink4a) expression” value in experiment [1] is listed as “abrogated”. Further, in experiment [2], the “Modulation of p16(Ink4a): mLF and mVAT Senescent” value is listed as “no change”; the “Modulation of p16(Ink4a): mLF and mVAT Proliferating” value is on record as “no change”. In addition, in the experiment on SAMs, the “viability of macrophages (CyQuant Direct)” value was “without affecting viability”.
Turning to `N#CCNC(=O)c1ccc(-c2ccnc(Nc3ccc(N4CCOCC4)cc3)n2)cc1` [CYT387, momelotinib, reference compound], the “IL-4-dependent increase in luciferase activity / p16(Ink4a) expression” value in experiment [1] is “abrogates”. Further, in experiment [2], the “Modulation of p16(Ink4a): mLF and mVAT Senescent” value was “no change”; the “Modulation of p16(Ink4a): mLF and mVAT Proliferating” value was “no change”.
Take `CCOC(=O)c1sc(SCc2ccccc2)c2c1CN(c1ccc(OC)cc1)C/C2=N\O` [Example A1.11, Ethyl 1-(benzylthio)-7-(hydroxyimino)-5-(4-methoxyphenyl)-4,5,6,7-tetrahydro-thieno[3,4-c]pyridine-3-carboxylate]: the “Modulation of p16(Ink4a): SAMs” value in experiment [1] is reported as “decrease”. In experiment [3] (OT-82: after 6 courses, 111 weeks of age, asenins: treated weeks 77-97, at 112 weeks of age), the “survival rates vs control groups” value was “no statistical significance”. For the same compound, the “FI of males compared to intact animals” value in experiment [3] (treatment weeks 77-97 of age, measured at week 109) is given as “statistically significant decrease”. Also, in experiment [2], the “Modulation of p16(Ink4a): mLF and mVAT Senescent” value is on record as “no change”; the “Modulation of p16(Ink4a): mLF and mVAT Proliferating” value is “no change”.
As to `CN(C)C(=N)N=C(N)N` [Metformin], the “Modulation of p16(Ink4a): SAMs” value in experiment [1] is “decrease”.

The record behind these values is patent US20200123127A1, “REMOVAL OF SENESCENCE-ASSOCIATED MACROPHAGES” (EVERON BIOSCIENCES, INC., priority 2016, published 2020).
